# Measured values: patent US20250333424A1, “ANTIVIRAL COMPOUNDS” (Gilead Sciences, Inc., priority 2024, published 2025)
# pEC50: −log10 of the molar value.
# Tested on: CD4 cells, isolated from healthy donor PMBCs, infected with HIV VSV-G pseudotyped GFP-GAG reporter virus
# Experiment: tissue or blood
# Assay type: cell-based
# Details: Homo sapiens, 72 h
row,SMILES,pEC50
1,"Cc1cc(/C=C/C#N)cc(C)c1Oc1nc(NC23CC(C#N)(C2)C3)nc2ncsc12 [Compound 75, (E)-3-((7-(4-(2-cyanovinyl)-2,6-dimethylphenoxy)thiazolo[4,5-d]pyrimidin-5-yl)amino)bicyclo[1.1.1]pentane-1-carbonitrile]",7.26
2,"Cc1cc(/C=C/C#N)cc(C)c1Oc1nc(NC23CC(C#N)(C2)C3)nc2nc[nH]c12 [Compound 44, (E)-3-((6-(4-(2-cyanovinyl)-2,6-dimethylphenoxy)-7H-purin-2-yl)amino)bicyclo[1.1.1]pentane-1-carbonitrile]",6.96
3,"Cc1cc(/C=C/C#N)cc(C)c1Oc1nc(NC23CC(C#N)(C2)C3)nc2c1C[N+](C)(C)C2 [Compound 152, (E)-2-((3-cyanobicyclo[1.1.1]pentan-1-yl)amino)-4-(4-(2-cyanovinyl)-2,6-dimethylphenoxy)-6,6-dimethyl-6,7-dihydro-5H-pyrrolo[3,4-d]pyrimidin-6-ium]",5.47
4,"Cc1cc(/C=C/C#N)cc(C)c1Oc1nc(NC23CC(C#N)(C2)C3(F)F)nc2[nH]nc(C)c12 [Compound 77, (E)-3-((4-(4-(2-cyanovinyl)-2,6-dimethylphenoxy)-3-methyl-1H-pyrazolo[3,4-d]pyrimidin-6-yl)amino)-2,2-difluorobicyclo[1.1.1]pentane-1-carbonitrile]",7.55
5,"Cc1cc(/C=C/C#N)cc(C)c1Oc1nc(NC23CC(C#N)(C2)C3(F)F)nc2c1CCO2 [Compound 78, (E)-3-((4-(4-(2-cyanovinyl)-2,6-dimethylphenoxy)-5,6-dihydrofuro[2,3-d]pyrimidin-2-yl)amino)-2,2-difluorobicyclo[1.1.1]pentane-1-carbonitrile]",7.92
6,"Cc1cc(/C=C/C#N)cc(C)c1Oc1nc(NC23CC(C#N)(C2)C3)nc2nc(C(C)(F)F)n(C)c12 [Compound 41, (E)-3-((6-(4-(2-cyanovinyl)-2,6-dimethylphenoxy)-8-(1,1-difluoroethyl)-7-methyl-7H-purin-2-yl)amino)bicyclo[1.1.1]pentane-1-carbonitrile]",7.11
7,"Cc1nc2nc(NC34CC(C#N)(C3)C4)nc(Oc3c(F)cc(/C=C/C#N)cc3F)c2[nH]1 [Compound 58, (E)-3-((6-(4-(2-cyanovinyl)-2,6-difluorophenoxy)-8-methyl-7H-purin-2-yl)amino)bicyclo[1.1.1]pentane-1-carbonitrile]",6.37
8,"Cc1cc(/C=C/C#N)cc(C)c1Oc1nc(NC23CC(C#N)(C2)C3)nc2c1CCO2 [Compound 118, (E)-3-((4-(4-(2-cyanovinyl)-2,6-dimethylphenoxy)-5,6-dihydrofuro[2,3-d]pyrimidin-2-yl)amino)bicyclo[1.1.1]pentane-1-carbonitrile]",7.09
9,"Cc1cc(/C=C/C#N)cc(C)c1Oc1nc(NC23CC(CC(F)F)(C2)C3)nc2nc[nH]c12 [Compound 155, (E)-3-(4-((2-((3-(2,2-difluoroethyl)bicyclo[1.1.1]pentan-1-yl)amino)-7H-purin-6-yl)oxy)-3,5-dimethylphenyl)acrylonitrile]",6.38

# Tested on: monocytic THP1 cells infected with HIV VSV-G pseudotyped GFP-NEF reporter virus
# Experiment: cells
# Assay type: cell-based
# Details: Human immunodeficiency virus 1, THP-1, 24 h
row,SMILES,pEC50
1,"Cc1cc(/C=C/C#N)cc(C)c1Oc1nc(NC23CC(C#N)(C2)C3)nc2nc(Nc3c(C)noc3C)[nH]c12 [Compound 67, (E)-3-((6-(4-(2-cyanovinyl)-2,6-dimethylphenoxy)-8-((3,5-dimethylisoxazol-4-yl)amino)-7H-purin-2-yl)amino)bicyclo[1.1.1]pentane-1-carbonitrile]",6.64
2,"Cc1cc(/C=C/C#N)cc(C)c1Oc1nc(NC23CC(C#N)(C2)C3)nc2nn(C3CC3)cc12 [Compound 144, (E)-3-((4-(4-(2-cyanovinyl)-2,6-dimethylphenoxy)-2-cyclopropyl-2H-pyrazolo[3,4-d]pyrimidin-6-yl)amino)bicyclo[1.1.1]pentane-1-carbonitrile]",7.09
3,"CCc1cc(/C=C/C#N)cc(Cl)c1Oc1nc(NC23CC(C#N)(C2)C3)nc2nn(C)cc12 [Compound 7, (E)-3-((4-(2-chloro-4-(2-cyanovinyl)-6-ethylphenoxy)-2-methyl-2H-pyrazolo[3,4-d]pyrimidin-6-yl)amino)bicyclo[1.1.1]pentane-1-carbonitrile]",7.67
4,"Cc1cc(/C=C/C#N)cc(C)c1Oc1nc(NC23CC(C#N)(C2)C3)nc2nn(CCC(F)F)c(C)c12 [Compound 102, (E)-3-((4-(4-(2-cyanovinyl)-2,6-dimethylphenoxy)-2-(3,3-difluoropropyl)-3-methyl-2H-pyrazolo[3,4-d]pyrimidin-6-yl)amino)bicyclo[1.1.1]pentane-1-carbonitrile]",7.65
5,"Cc1cc(/C=C/C#N)cc(C)c1Oc1nc(NC23CC(C#N)(C2)C3)nc2nc(C)n(Cc3ccn[nH]3)c12 (single isomer, unassigned) [Compound 18, (E)-3-((7-((1H-pyrazol-5-yl)methyl)-6-(4-(2-cyanovinyl)-2,6-dimethylphenoxy)-8-methyl-7H-purin-2-yl)amino)bicyclo[1.1.1]pentane-1-carbonitrile]",7.62
6,"Cc1cc(/C=C/C#N)cc(C)c1Oc1nc(NC23CC(C#N)(C2)C3)nc2c1C(C)(O)N(C)C2=O (stereo not drawn) [Compound 141, (E)-3-((4-(4-(2-cyanovinyl)-2,6-dimethylphenoxy)-5-hydroxy-5,6-dimethyl-7-oxo-6,7-dihydro-5H-pyrrolo[3,4-d]pyrimidin-2-yl)amino)bicyclo[1.1.1]pentane-1-carbonitrile]",7.14
7,"C=C1c2c(Oc3c(C)cc(/C=C/C#N)cc3C)nc(NC34CC(C#N)(C3)C4)nc2C(=O)N1CCCCO [Compound 270, (E)-3-((4-(4-(2-cyanovinyl)-2,6-dimethylphenoxy)-6-(4-hydroxybutyl)-5-methylene-7-oxo-6,7-dihydro-5H-pyrrolo[3,4-d]pyrimidin-2-yl)amino)bicyclo[1.1.1]pentane-1-carbonitrile]",7.72
8,"Cc1cc(/C=C/C#N)cc(C)c1Oc1nc(NC23CC(C#N)(C2)C3)nc2nc(-c3ccno3)[nH]c12 [Compound 73, (E)-3-((6-(4-(2-cyanovinyl)-2,6-dimethylphenoxy)-8-(isoxazol-5-yl)-7H-purin-2-yl)amino)bicyclo[1.1.1]pentane-1-carbonitrile]",6.55
9,"CCOC1NC(=O)c2nc(NC34CC(C#N)(C3)C4)nc(Oc3c(C)cc(/C=C/C#N)cc3C)c21 (stereo not drawn) [Compound 288, (E)-3-((4-(4-(2-cyanovinyl)-2,6-dimethylphenoxy)-5-ethoxy-7-oxo-6,7-dihydro-5H-pyrrolo[3,4-d]pyrimidin-2-yl)amino)bicyclo[1.1.1]pentane-1-carbonitrile]",7.53
10,"Cc1cc(/C=C/C#N)cc(C)c1Oc1nc(NC23CC(C#N)(C2)C3)nc2c1CNC2 [Compound 135, (E)-3-((4-(4-(2-cyanovinyl)-2,6-dimethylphenoxy)-6,7-dihydro-5H-pyrrolo[3,4-d]pyrimidin-2-yl)amino)bicyclo[1.1.1]pentane-1-carbonitrile]",6.56
11,"Cc1cc(/C=C/C#N)cc(C)c1Oc1nc(NC23CC(C#N)(C2)C3)nc2c1C1(C)O[C@H](C)CN1C2=O (single isomer, unassigned) [Example 251]",7.14
12,"Cc1cc(/C=C/C#N)cc(C)c1Oc1nc(NC23CC(C#N)(C2)C3)nc2c1C1(C)OC[C@H](C)CN1C2=O (single isomer, unassigned) [Example 245]",7.65
13,"Cc1cc(/C=C/C#N)cc(C)c1Oc1nc(NC23CC(C#N)(C2)C3)nc2nc3n(c12)C[C@@H](O)CO3 (single isomer, unassigned) [Compound 193]",6.50
14,"Cc1cc(/C=C/C#N)cc(C)c1Oc1nc(NC23CC(C#N)(C2)C3)nc2c1C1(C)OC[C@@H](F)CN1C2=O (stereo partly drawn) [Example 201, 3-(((7S)-4-(4-((E)-2-cyanovinyl)-2,6-dimethylphenoxy)-7-fluoro-4b-methyl-10-oxo-4b,7,8,10-tetrahydro-6H-pyrimido[5′,4′:3,4]pyrrolo[2,1-b][1,3]oxazin-2-yl)amino)bicyclo[1.1.1]pentane-1-carbonitrile]",7.05
15,"Cc1cc(/C=C/C#N)cc(C)c1Oc1nc(NC23CC(C#N)(C2)C3)nc2nn(-c3ccccc3)cc12 [Compound 74, (E)-3-((4-(4-(2-cyanovinyl)-2,6-dimethylphenoxy)-2-phenyl-2H-pyrazolo[3,4-d]pyrimidin-6-yl)amino)bicyclo[1.1.1]pentane-1-carbonitrile]",6.79
16,"Cc1cc(/C=C/C#N)cc(C)c1Oc1nc(NC23CC(C#N)(C2)C3)nc2c1[C@@]1(C)O[C@@H](C)CN1C2=O (single isomer, unassigned) [Example 249]",7.12
17,"Cc1cc(/C=C/C#N)cc(C)c1Oc1nc(NC23CC(C#N)(C2)C3)nc2c(=O)n(C)n(C(F)F)c12 [Compound 292, (E)-3-((7-(4-(2-cyanovinyl)-2,6-dimethylphenoxy)-1-(difluoromethyl)-2-methyl-3-oxo-2,3-dihydro-1H-pyrazolo[4,3-d]pyrimidin-5-yl)amino)bicyclo[1.1.1]pentane-1-carbonitrile]",7.23
18,"Cc1cc(/C=C/C#N)c(C(F)(F)F)c(C)c1Oc1nc(NC23CC(C#N)(C2)C3)nc2nn(C)cc12 [Compound 4, (E)-3-((4-(4-(2-cyanovinyl)-2,6-dimethyl-3-(trifluoromethyl)phenoxy)-2-methyl-2H-pyrazolo[3,4-d]pyrimidin-6-yl)amino)bicyclo[1.1.1]pentane-1-carbonitrile]",5.83
19,"CO[C@H]1COC2c3c(Oc4c(C)cc(/C=C/C#N)cc4C)nc(NC45CC(C#N)(C4)C5)nc3C(=O)N2C1 (single isomer, unassigned) [Example 252]",7.11
20,"Cc1cc(/C=C/C#N)cc(C)c1Oc1nc(NC23CC(C#N)(C2)C3)nc2c1C(C)N(CCC(F)(F)F)C2=O (stereo not drawn) [Example 207, (E)-3-((4-(4-(2-cyanovinyl)-2,6-dimethylphenoxy)-5-methyl-7-oxo-6-(3,3,3-trifluoropropyl)-6,7-dihydro-5H-pyrrolo[3,4-d]pyrimidin-2-yl)amino)bicyclo[1.1.1]pentane-1-carbonitrile]",7.15
21,"Cc1cc(/C=C/C#N)cc(C)c1Oc1nc(NC23CC(C#N)(C2)C3)nc2nc(-c3ccn(C)n3)n(C(F)F)c12 [Compound 177, (E)-3-((6-(4-(2-cyanovinyl)-2,6-dimethylphenoxy)-7-(difluoromethyl)-8-(1-methyl-1H-pyrazol-3-yl)-7H-purin-2-yl)amino)bicyclo[1.1.1]pentane-1-carbonitrile]",7.34
